Assays:
[1] = test system: Norwalk virus binding to the H antigen; assay: Saliva-based blocking EIA: Norwalk virus VLP binding to H antigen; set-up: species or system Norovirus; conditions: for EC50: Norwalk VLP binding to H antigen, read-out: EC50 rNorwalk H
Excerpt: (§1) A saliva based blocking assay offers several advantages for anti-Norovirus agent screening. First, the assay is a solid phase blocking assay which is simple and suitable for large scale screening. Second, the source of HBGAs used in the assay was from healthy human volunteers, which is likely to represent the natural forms of Norovirus receptors. Third, the assay is highly sensitive and specific. Finally, a panel of saliva samples can be assembled from different individuals representing different blood types, from which the results obtained in primary screenings can be validated.
(§2) To optimize the blocking assays, we have titrated all reagents used in the assays including the VLPs, the first and second antibodies, the blocking reagent (dried cow milk), and a panel of saliva samples from different donors. […] For comparison of daily results, eight control wells containing everything but compounds were included in each plate, and the assays were considered valid when the daily OD450 variations in these wells were less than 20%. Less than 1% of the total screening runs failed in our study.
(§3) Cow milk contains a large amount of variable proteins, lipids and glycans which can easily interfere with the assay particularly when a low concentration of compounds (μM) was used in our screening. To avoid any false-negative results, the step of addition of blotto in the EIA for all screening experiments in this study was removed.
(§4) Baculovirus-expressed recombinant capsid proteins of four Norovirus strains representing four distinct receptor binding patterns were studied: Norovirus strains Norwalk, VA387, VA207, and MOH. The procedures of production of Norovirus VLPs in insect cell Spodoptera frugiperda (Sf9) have described in “Expression, self-assembly, and antigenicity of the Norwalk virus capsid protein”, J Virol 66:6527-32, Jiang et al (1992), and in “Baculovirus expression and antigenic characterization of the capsid proteins of three Norwalk-like viruses”, Arch Virol 147:119-30, Jiang et al. (2002), the disclosures of which are incorporated herein by reference. Briefly, a cDNA from the 3′ end of the genome containing the viral capsid gene (open reading frame 2 [ORF-2] was cloned from the viral RNA extracted from stool specimens. The recombinant baculoviruses carry the viral capsid genes were constructed from the cloned cDNAs using the Bac to Bac expression system according to the manufacture's instructions (Invitrogen Life Technologies, Carlsbad, Calif.). VLPs were partially purified by sucrose gradient centrifugation and stored at −80° C. Protein concentrations were determined by measuring the optical density at 280 nm (OD280) using a GeneQuant spectrophotometer (Pharmacia, Mich.) and by comparison with a bovine serum albumin standard in a sodium dodecyl sulfate-polyacrylamide gel (25). The purity of VLPs used in this study was over 90% which was determined by SDS-PAGE analysis.
(§5) Saliva samples were collected from healthy adult volunteers under an approval of human subject research protocol by the Institutional Review Board at the Cincinnati Children's Hospital Medical Center. Except for gender and race, no other personal information was collected. A total of 5-10 ml of saliva was collected from each volunteer, and the samples were processed immediately after collection. To avoid potential Norovirus-specific antibodies that may interfere in the receptor binding assays, saliva samples were boiled at 100° C. for 10 min, and then centrifuged at 10,000×g for 5 min. The clear supernatant was stored at −80° C. until use. The HBGA types of the saliva samples were determined by enzyme immune assays with monoclonal antibodies specific to human HBGAs (8). Saliva sample from a type A donor was selected for the primary screening, and a total of 25 saliva samples of known ABO, secretor, and Lewis types were selected for further studies to confirm the primary screening results. […]

[2] = target: VA387 VLPs binding to the A antigen; assay: Saliva-based blocking EIA: VA387 VLP binding to type A saliva; set-up: species or system Norovirus; conditions: read-out: EC50 rVA387 A
Excerpt: as §1, §2, §3, §4, §5

[3] = target: MOH binding to the A antigen; assay: Saliva-based blocking EIA: MOH VLP binding to A antigen; set-up: species or system Norovirus; conditions: MOH VLP binding to type A saliva; read-out: EC50 rMOH A
Excerpt: as §1, §2, §3, §4, §5

[4] = target: VA387 binding to the B antigen; assay: Saliva-based blocking EIA: VA387 VLP binding to B antigen; set-up: species or system Norovirus; conditions: for EC50: VA387 VLP binding to B antigen saliva, read-out: EC50 rVA387 B; for inhibition of VA387 binding to the B antigen: one saliva sample
Excerpt: as §1, §2, §3, §4, §5

[5] = test system: Norwalk virus binding to the A antigen; assay: Saliva-based blocking EIA: Norwalk virus VLP binding to A antigen; set-up: species or system Norovirus; conditions: for EC50: Norwalk VLP binding to A antigen, read-out: EC50 rNorwalk A
Excerpt: as §1, §2, §3, §4, §5

[6] = target: VA387 binding to the H antigen; assay: Saliva-based blocking EIA: VA387 VLP binding to H antigen; set-up: species or system Norovirus; conditions: for EC50: VA387 VLP binding to H antigen saliva, read-out: EC50 rVA387 H; for inhibition of VA387 binding to the H antigen: one saliva sample
Excerpt: as §1, §2, §3, §4, §5

[7] = target: MOH binding to the B antigen; assay: Saliva-based blocking EIA: MOH VLP binding to B antigen; set-up: species or system Norovirus; conditions: MOH VLP binding to type B saliva; read-out: EC50 rMOH B
Excerpt: as §1, §2, §3, §4, §5

[8] = target: VA207 binding to the Lewis antigens; assay: Saliva-based blocking EIA: VA207 VLP binding to Lewis antigens; set-up: species or system Norovirus; conditions: VA207 VLP binding to Lewis antigen; read-out: EC50 rVA207 Le
Excerpt: as §1, §2, §3, §4, §5

[9] = test system: Human cervical carcinoma cells (HeLa); assay: MTS cytotoxicity assay, HeLa cells; format: cell-based; conditions: 3 days, average of three experiments

`CCC[n+]1cc(-c2ccccc2)nc(N2CCOCC2)n1.[I-]` [Compound 1] was tested, and the “inhibition of Norwalk virus binding to the H antigen” value (from here on “inhibition of Norwalk virus binding”) [1] was “inhibited”, the EC50 [1] was 18.9 µM and the EC50 [2] was 2.2 µM. For the same compound, the EC50 [3] was over 100 µM, the EC50 [4] was 5.8 µM and the “inhibition of VA387 binding to the B antigen” value (“inhibition … to the B antigen” below) [4] was “dose-dependant inhibition”. The “blocking of Norwalk virus binding to the A antigen” value (shortened to “blocking of Norwalk virus binding”) [5] was “blocked”, the EC50 [5] was 15.6 µM and the EC50 [6] was 6.8 µM. The “inhibition of VA387 binding to the H antigen” value [6] was “dose-dependant inhibition”, the EC50 [7] was over 100 µM and the EC50 [8] was over 100 µM.

In the case of `CCOC(=O)C1=C(C)OC(N)=C(C#N)C1c1ccc(OCc2ccc(C)cc2)c([N+](=O)[O-])c1` (stereo not drawn) [Compound 2], the “inhibition of Norwalk virus binding” value [1] is reported as “inhibited”, the EC50 [1] is reported as 24.5 µM and the CC50 [9] is reported as 78.6 µM. The EC50 [2] was 4.8 µM, the EC50 [3] was 16.5 µM and the EC50 [4] was 18.6 µM. The “inhibition … to the B antigen” value [4] was “dose-dependant inhibition”, the “blocking of Norwalk virus binding” value [5] was “blocked” and the EC50 [5] was 22.9 µM. For the same compound, the EC50 [6] was 11.9 µM, the “inhibition of VA387 binding to the H antigen” value [6] was “dose-dependant inhibition” and the EC50 [7] was 13.3 µM. For the same compound, the EC50 [8] was over 100 µM.

With `C=C(SCCNC(=O)NCCCCCCNC(=O)NCCSc1ccccc1O)C(C)=CC` [Compound 4] the “inhibition of Norwalk virus binding” value [1] was “inhibited”, the EC50 [1] was 22.6 µM and the EC50 [2] was 8.1 µM. The EC50 [3] was over 100 µM, the EC50 [4] was 13.1 µM and the “inhibition … to the B antigen” value [4] was “dose-dependant inhibition”. For the same compound, the “blocking of Norwalk virus binding” value [5] was “blocked”, the EC50 [5] was 14.1 µM and the EC50 [6] was 14.2 µM. For the same compound, the “inhibition of VA387 binding to the H antigen” value [6] was “dose-dependant inhibition”, the EC50 [7] was over 100 µM and the EC50 [8] was over 100 µM.

For `CCCc1ccc(OCc2ccc(C(=O)N/N=C/c3ccc(Cl)cc3O)o2)cc1` [Compound 5], the “inhibition of Norwalk virus binding” value [1] was “inhibited”, the EC50 [1] was 36.3 µM and the CC50 [9] was 46.7 µM. For the same compound, the EC50 [2] was 9.1 µM, the EC50 [3] was over 100 µM and the EC50 [4] was 13.5 µM. The “inhibition … to the B antigen” value [4] was “dose-dependant inhibition”, the “blocking of Norwalk virus binding” value [5] was “blocked” and the EC50 [5] was 18.2 µM. The EC50 [6] was 7.2 µM, the “inhibition of VA387 binding to the H antigen” value [6] was “dose-dependant inhibition” and the EC50 [7] was over 100 µM. The EC50 [8] was over 100 µM.

In the case of `O=CC(=O)c1ccc2c(c1)Cc1cc(C(=O)C=O)ccc1-2` [Compound 6], the EC50 [1] is reported as over 100 µM, the CC50 [9] is reported as 52.7 µM and the EC50 [2] is reported as 9.3 µM. For the same compound, the EC50 [3] was over 100 µM, the EC50 [4] was 44.6 µM and the “inhibition … to the B antigen” value [4] was “dose-dependant inhibition”. For the same compound, the EC50 [5] was over 100 µM, the EC50 [6] was 41.1 µM and the “inhibition of VA387 binding to the H antigen” value [6] was “dose-dependant inhibition”. It also gave an EC50 [7] of over 100 µM and an EC50 [8] of over 100 µM.

For `Oc1ccc(C=Nc2nccs2)c(O)c1` [Compound 7], the EC50 [1] was over 100 µM, the EC50 [2] was 9.6 µM and the EC50 [3] was over 100 µM. The EC50 [4] was 26 µM, the “inhibition … to the B antigen” value [4] was “dose-dependant inhibition” and the EC50 [5] was over 100 µM. The EC50 [6] was 7.6 µM, the “inhibition of VA387 binding to the H antigen” value [6] was “dose-dependant inhibition” and the EC50 [7] was over 100 µM. The EC50 [8] was over 100 µM.

With `O=C(/C=C/c1ccc(-c2cc(Cl)cc(Cl)c2)o1)c1cccs1` [Compound 8] the EC50 [1] was over 100 µM, the EC50 [2] was 10.9 µM and the EC50 [3] was over 100 µM. The EC50 [4] was over 100 µM, the “inhibition … to the B antigen” value [4] was “did not have any inhibitory activity” and the EC50 [5] was over 100 µM. For the same compound, the EC50 [6] was over 100 µM, the “inhibition of VA387 binding to the H antigen” value [6] was “did not have any inhibitory activity” and the EC50 [7] was over 100 µM. For the same compound, the EC50 [8] was over 100 µM.

— patent US20110152263A1, “COMPOSITION AND METHOD FOR INHIBITING NOROVIRUS INFECTION” (priority 2006, published 2011)
